Reference: ChEMBL document CHEMBL4043168, “The design and SAR of a novel series of 2-aminopyridine based LRRK2 inhibitors” (Bioorg Med Chem Lett, 2017)

Columns and labels:
[1] = Ratio of unbound drug level in mouse brain to plasma at 10 mg/kg, po; type: ADME, organism-based; conditions: read-out: K(p,uu,brain)
[2] = molecular target: Calcium/calmodulin-dependent protein kinase type II subunit beta (Homo sapiens) (UniProt Q13554); assay: Inhibition of CaMK2b labeling at conserved Lys2 (DLKPENLLLASK) in human PBMC at 1 uM
[3] = molecular target: Interleukin-1 receptor-associated kinase 1 (Homo sapiens) (UniProt P51617); assay: Inhibition of IRAK1 conserved Lys2 (AIQFLHQDSPSLIHGDIKSSNVLLDER) in human PBMC at 1 uM
Chain of Interleukin-1 receptor-associated kinase 1 (Homo sapiens) (P51617 whole entry, looked up, the tested form may be a part): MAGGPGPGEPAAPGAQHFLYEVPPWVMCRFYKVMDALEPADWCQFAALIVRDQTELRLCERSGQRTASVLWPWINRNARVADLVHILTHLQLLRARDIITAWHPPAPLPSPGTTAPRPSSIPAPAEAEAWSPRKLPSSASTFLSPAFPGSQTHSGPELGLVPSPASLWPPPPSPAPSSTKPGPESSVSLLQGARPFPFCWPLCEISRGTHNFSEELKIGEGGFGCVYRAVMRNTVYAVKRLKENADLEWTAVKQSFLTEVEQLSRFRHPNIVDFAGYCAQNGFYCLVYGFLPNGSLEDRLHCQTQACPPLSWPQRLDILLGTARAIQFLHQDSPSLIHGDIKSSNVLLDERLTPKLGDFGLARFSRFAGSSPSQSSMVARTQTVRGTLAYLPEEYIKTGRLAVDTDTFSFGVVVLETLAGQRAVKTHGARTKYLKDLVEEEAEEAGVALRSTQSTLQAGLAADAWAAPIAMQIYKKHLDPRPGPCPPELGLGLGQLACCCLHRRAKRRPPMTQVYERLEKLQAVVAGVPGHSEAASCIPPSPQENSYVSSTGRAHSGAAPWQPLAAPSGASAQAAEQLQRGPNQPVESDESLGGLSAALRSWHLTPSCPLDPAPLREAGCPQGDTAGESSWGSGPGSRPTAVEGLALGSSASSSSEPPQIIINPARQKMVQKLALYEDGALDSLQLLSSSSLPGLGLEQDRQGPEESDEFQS

[4] = molecular target: T1, Tyrosine-protein kinase JAK3 (Homo sapiens) (UniProt P52333); assay: Inhibition of JAK3 domain2 activation Loop (IADFGLAKLLPLDKDYYVVR) in human PBMC at 1 uM
T1 sequence (whole entry): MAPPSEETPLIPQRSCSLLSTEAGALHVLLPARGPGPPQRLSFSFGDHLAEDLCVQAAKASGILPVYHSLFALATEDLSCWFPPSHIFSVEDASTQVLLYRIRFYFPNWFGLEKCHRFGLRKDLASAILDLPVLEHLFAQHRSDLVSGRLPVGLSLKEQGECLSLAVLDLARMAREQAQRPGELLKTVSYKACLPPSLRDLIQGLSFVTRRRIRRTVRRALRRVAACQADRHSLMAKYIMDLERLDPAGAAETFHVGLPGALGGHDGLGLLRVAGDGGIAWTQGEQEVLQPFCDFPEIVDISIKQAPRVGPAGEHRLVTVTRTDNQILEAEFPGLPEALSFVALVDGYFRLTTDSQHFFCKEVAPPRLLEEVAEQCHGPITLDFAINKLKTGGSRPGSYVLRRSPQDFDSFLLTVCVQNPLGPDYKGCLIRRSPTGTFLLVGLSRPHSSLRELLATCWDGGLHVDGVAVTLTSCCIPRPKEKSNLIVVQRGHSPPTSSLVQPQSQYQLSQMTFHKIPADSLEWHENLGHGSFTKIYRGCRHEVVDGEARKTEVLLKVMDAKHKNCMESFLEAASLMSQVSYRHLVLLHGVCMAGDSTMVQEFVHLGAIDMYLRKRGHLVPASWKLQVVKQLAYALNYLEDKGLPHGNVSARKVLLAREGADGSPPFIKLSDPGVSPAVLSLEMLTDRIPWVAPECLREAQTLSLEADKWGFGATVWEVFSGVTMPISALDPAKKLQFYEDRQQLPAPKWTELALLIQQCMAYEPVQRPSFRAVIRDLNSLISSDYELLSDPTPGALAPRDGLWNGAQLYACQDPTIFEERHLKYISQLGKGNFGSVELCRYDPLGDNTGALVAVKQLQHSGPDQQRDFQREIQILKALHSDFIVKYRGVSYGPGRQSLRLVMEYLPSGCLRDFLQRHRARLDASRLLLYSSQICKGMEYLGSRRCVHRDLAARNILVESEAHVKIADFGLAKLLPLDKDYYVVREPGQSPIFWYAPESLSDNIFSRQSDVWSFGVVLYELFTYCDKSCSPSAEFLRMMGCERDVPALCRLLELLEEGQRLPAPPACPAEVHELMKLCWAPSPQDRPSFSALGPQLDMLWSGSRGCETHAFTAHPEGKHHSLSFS

[5] = molecular target: T2, Serine/threonine-protein kinase LATS1 (Homo sapiens) (UniProt O95835); assay: Inhibition of LATS1 conserved Lys2 (DIKPDNILIDR) in human PBMC at 1 uM
T2 sequence (whole entry): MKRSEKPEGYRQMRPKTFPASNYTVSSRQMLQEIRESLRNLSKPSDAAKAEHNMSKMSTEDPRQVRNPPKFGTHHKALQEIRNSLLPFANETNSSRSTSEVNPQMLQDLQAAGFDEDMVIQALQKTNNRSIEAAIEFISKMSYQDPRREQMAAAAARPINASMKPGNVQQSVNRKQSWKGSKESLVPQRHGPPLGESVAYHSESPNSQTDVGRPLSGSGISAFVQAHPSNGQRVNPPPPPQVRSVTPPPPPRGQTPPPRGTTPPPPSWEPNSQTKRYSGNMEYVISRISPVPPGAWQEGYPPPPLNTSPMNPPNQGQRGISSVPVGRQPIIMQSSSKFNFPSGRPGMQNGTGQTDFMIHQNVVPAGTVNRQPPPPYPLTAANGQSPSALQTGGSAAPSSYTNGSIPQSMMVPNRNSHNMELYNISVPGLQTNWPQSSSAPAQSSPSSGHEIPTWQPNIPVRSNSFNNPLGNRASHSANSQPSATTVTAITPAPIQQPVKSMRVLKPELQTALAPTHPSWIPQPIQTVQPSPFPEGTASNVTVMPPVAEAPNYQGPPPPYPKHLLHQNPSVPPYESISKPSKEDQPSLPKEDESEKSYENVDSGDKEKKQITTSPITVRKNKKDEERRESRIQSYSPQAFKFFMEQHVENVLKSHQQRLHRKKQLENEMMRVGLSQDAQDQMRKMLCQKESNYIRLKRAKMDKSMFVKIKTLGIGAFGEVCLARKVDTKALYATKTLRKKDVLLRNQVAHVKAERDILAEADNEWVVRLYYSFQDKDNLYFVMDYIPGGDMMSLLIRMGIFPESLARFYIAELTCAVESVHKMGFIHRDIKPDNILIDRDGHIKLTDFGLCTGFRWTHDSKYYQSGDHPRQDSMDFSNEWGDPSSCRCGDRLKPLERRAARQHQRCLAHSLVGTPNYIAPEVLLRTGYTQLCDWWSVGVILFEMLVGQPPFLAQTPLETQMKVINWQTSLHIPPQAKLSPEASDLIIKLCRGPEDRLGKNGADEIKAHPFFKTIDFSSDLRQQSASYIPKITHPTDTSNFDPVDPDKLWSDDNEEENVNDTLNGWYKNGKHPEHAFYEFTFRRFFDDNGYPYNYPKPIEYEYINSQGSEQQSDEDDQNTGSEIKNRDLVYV

[6] = molecular target: Leucine-rich repeat serine/threonine-protein kinase 2 (Homo sapiens, UniProt Q5S007); assay: Inhibition of LRRK2 conserved Lys2 (DLKPHNVLLFTLYPNAAIIAK) in human PBMC at 1 uM
Chain of Leucine-rich repeat serine/threonine-protein kinase 2 (Q5S007 whole entry): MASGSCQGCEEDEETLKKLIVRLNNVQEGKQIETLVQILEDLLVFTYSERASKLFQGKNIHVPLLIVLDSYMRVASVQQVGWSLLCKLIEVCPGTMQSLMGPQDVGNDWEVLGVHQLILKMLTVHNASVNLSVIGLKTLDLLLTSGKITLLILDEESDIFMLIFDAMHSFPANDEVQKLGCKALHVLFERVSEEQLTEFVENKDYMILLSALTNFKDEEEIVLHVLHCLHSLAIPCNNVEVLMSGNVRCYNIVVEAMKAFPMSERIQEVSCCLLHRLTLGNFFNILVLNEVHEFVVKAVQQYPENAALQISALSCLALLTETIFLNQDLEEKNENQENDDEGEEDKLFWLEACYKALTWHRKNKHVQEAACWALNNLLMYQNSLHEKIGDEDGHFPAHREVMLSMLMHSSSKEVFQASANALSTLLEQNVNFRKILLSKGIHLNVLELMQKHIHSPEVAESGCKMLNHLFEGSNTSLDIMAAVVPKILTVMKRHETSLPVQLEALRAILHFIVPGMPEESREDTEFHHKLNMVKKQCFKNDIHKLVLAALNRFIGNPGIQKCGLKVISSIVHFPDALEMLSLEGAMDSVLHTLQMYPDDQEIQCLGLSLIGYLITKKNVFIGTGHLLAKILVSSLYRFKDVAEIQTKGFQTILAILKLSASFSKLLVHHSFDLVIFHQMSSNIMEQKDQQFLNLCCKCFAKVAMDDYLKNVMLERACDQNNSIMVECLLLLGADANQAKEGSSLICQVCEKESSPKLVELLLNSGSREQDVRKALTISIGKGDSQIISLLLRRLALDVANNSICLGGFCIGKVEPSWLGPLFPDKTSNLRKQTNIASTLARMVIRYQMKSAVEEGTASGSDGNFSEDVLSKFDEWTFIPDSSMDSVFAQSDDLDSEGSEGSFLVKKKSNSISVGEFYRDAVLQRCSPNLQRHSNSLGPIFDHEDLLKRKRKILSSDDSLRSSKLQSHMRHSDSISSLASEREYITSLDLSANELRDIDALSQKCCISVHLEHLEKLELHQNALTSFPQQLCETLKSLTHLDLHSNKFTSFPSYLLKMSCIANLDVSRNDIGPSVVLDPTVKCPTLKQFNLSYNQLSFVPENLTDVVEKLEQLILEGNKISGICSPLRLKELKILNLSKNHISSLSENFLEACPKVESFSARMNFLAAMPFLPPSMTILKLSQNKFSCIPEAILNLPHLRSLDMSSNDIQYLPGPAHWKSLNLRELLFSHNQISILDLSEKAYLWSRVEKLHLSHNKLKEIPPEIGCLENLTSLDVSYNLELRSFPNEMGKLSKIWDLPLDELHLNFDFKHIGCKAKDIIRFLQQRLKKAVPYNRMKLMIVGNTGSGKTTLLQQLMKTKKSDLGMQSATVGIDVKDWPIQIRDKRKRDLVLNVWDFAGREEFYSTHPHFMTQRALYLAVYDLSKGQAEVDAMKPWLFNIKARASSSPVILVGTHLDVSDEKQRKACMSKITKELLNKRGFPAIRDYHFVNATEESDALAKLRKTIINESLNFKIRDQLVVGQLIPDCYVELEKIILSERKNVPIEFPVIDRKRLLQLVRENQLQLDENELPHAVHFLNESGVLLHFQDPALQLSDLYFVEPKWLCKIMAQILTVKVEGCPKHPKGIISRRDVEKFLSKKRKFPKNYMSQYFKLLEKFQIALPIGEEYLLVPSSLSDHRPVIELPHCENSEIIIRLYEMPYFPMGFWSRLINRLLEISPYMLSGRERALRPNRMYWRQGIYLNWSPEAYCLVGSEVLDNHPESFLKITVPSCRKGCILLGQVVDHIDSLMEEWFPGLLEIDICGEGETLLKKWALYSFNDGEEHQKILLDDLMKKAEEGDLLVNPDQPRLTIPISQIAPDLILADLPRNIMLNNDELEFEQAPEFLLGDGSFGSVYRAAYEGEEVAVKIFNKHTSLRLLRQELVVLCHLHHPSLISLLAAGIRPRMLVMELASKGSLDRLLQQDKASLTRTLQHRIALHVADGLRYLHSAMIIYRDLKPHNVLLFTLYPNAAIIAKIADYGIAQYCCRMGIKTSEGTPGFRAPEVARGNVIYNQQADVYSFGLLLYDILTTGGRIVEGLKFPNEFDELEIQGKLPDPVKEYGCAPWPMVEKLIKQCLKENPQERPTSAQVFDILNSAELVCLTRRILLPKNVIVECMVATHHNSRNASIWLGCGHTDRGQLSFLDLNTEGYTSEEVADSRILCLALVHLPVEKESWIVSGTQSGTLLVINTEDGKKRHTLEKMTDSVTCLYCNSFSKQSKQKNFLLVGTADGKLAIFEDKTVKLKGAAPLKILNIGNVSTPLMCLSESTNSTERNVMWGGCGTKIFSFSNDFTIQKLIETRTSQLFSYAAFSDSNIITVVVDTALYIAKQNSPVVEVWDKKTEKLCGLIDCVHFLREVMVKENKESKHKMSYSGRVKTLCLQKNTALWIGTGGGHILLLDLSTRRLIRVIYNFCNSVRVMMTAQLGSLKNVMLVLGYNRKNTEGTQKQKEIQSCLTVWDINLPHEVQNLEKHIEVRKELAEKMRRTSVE

[7] = molecular target: Mitogen-activated protein kinase kinase kinase kinase 5 (Homo sapiens) (UniProt Q9Y4K4); assay: Inhibition of KHS1 conserved Lys1 (NVHTGELAAVKIIK) in human PBMC at 0.1 uM
Chain of Mitogen-activated protein kinase kinase kinase kinase 5 (Homo sapiens) (Q9Y4K4 whole entry, looked up): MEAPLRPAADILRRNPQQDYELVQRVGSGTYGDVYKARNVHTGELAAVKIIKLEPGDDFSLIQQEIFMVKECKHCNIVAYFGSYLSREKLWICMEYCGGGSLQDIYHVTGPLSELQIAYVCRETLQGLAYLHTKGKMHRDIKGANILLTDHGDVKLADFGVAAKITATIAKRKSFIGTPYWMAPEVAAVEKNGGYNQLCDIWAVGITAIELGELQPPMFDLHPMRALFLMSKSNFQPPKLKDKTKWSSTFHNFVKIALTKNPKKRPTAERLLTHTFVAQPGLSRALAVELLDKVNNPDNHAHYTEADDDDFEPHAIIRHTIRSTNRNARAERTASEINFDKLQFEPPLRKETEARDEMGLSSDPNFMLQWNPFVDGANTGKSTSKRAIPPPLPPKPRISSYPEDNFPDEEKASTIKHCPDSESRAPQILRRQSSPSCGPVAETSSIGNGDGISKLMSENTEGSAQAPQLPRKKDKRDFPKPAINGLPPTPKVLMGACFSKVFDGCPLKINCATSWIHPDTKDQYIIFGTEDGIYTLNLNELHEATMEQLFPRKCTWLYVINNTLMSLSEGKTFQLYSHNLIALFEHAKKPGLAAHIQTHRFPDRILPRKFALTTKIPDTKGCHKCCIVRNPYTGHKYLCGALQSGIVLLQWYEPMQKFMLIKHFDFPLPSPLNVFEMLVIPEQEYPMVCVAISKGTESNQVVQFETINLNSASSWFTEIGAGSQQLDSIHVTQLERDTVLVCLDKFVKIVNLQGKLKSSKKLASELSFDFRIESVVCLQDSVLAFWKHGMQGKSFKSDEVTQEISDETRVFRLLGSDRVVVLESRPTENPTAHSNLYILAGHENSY

[8] = molecular target: Mitogen-activated protein kinase kinase kinase 15 (Homo sapiens) (UniProt Q6ZN16); assay: Inhibition of MAP3K15 conserved Lys1 (IAIKEIPER) in human PBMC at 0.1 uM
[9] = molecular target: Ribosomal protein S6 kinase alpha-1 (Homo sapiens) (UniProt Q15418); assay: Inhibition of RSK1 domain2 conserved Lys2 (DLKPSNILYVDESGNPECLR) in human PBMC at 0.1 uM
Chain of Ribosomal protein S6 kinase alpha-1 (Homo sapiens) (Q15418 whole entry, the tested form may be a part): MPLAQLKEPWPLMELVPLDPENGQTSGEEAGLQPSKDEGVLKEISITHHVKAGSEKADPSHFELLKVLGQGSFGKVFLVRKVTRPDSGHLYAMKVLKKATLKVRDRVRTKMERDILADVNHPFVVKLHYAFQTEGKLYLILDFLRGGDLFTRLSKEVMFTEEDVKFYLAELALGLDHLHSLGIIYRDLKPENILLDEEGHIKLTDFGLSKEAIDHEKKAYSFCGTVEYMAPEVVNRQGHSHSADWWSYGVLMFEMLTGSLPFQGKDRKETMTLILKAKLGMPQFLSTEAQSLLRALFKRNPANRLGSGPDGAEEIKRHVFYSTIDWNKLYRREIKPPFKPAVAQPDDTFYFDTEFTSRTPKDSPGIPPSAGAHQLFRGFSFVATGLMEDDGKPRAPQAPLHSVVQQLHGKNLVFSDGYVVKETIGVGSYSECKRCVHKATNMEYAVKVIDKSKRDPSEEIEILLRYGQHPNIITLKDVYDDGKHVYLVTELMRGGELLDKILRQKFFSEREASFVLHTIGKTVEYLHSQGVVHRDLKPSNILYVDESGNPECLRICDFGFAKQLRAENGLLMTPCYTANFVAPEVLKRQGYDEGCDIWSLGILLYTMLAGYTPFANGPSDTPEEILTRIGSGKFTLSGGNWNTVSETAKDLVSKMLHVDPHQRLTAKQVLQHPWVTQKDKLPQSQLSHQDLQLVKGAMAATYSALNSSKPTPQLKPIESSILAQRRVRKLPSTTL

[10] = molecular target: Ribosomal protein S6 kinase alpha-1 (Homo sapiens) (UniProt Q15418); assay: Inhibition of RSK1 conserved Lys2 (DLKPENILLDEEGHIK) in human PBMC at 0.1 uM
[11] = Inhibition of GCK conserved Lys2 (DIKGANLLLTLQGDVK) in human PBMC at 1 uM

Structure (SMILES): CC(C)n1cc(-c2cc(-c3ccc(CN4CCOCC4)cc3)cnc2N)nn1
- Kp uu [1]: 0.76
- inhibition [2]: -0.4%
- inhibition [3]: 17.3%
- inhibition [4]: 7.8%
- inhibition [5]: 30.9%
- inhibition [6]: 48.5%
- inhibition [7]: 14.7%
- inhibition [8]: -0.5%
- inhibition [9]: 8.3%
- inhibition [10]: 11.8%
- inhibition [11]: 26.2%
